Test results reported in US20040259159A1, “Role of LDL receptor protein-1 (LRP-1) in Alzheimer's disease” (priority 2000, published 2004).
Where a SMILES comes first, the peptide text is derived from it. The star is where a group is joined. Cbz = O=C(OCc1ccccc1)*

How the values were obtained:
[1] = system: LRP-1; test: Pulse chase of [35S]-methionine labeled LRP-1 in human brain endothelial cells (half-life); assay type: cell-based
Protocol: Human BEC (4×10^5) were pulsed for 1 hr at 37° C. with 400 μCi of [35S]-methionine (greater than 1000 Ci/mmol; Perkin Elmer, Boston, Mass.) in methionine-free Dulbecco modified Eagle medium (GIBCO BRL, New York, N.Y.). Cells were chased at indicated times within 48 hr. Cell lysates were immunoprecipitated with anti-LRP-1 515 kDa α-chain specific IgG (8G1) on SDS-PAGE. The intensity of signal was quantified in pixels using Storm 860 Phosphoimager (Amersham Biosciences, Piscataway, N.J.).

[2] = Brain clearance model in mice: efflux of 125I-Aβ1-40 and 14C-inulin after intracerebral microinjection; assay type: in vivo, mice
Protocol: Male C57BL/6 wild-type mice, 8-10 weeks old and 9-10 months old, and male apoE knockout mice (apoE KO) on a C57BL/6 background (Taconic Farm, German-town, N.Y.), 8-10 weeks old and 9-10 months old, were studied.
A stainless steel guide cannula was implanted stereotaxically into the right caudate-putamen of anesthetized mice (60 mg/kg i.p. sodium pentobarbital). Coordinates for the tip of the cannula were 0.9 mm anterior and 1.9 mm lateral to bregma and 2.9 mm below the surface of the brain. The guide cannula and screw were fixed to the skull with methylmethacrylate (Plastics One, Roanoke, Va.) and a stylet introduced into the guide cannula.
(§1) For radioisotope injection, animals were re-anesthetized and an injector cannula (Plastic One, Roanoke, Va.) attached with 24G-TEFLON tubing (Small Parts, Miami Lake, Fla.) to a 10 μl gas-tight microsyringe (Hamilton, Reno, Nev.) was used. The amount of injected tracers was determined accurately using a micrometer to measure linear displacement of the syringe plunger in the precalibrated microsyringe. […] When the effects of different molecular reagents were tested, those were injected simultaneously with the radiolabeled peptides.
The analysis of radioactivity-disappearance curves from the brain was as reported (40, 43). The percentage of radioactivity remaining in the brain after microinjection was determined from eq. 1 as % Recovery in brain=100×(Nb/Ni) where, Nb is the radioactivity remaining in the brain at the end of the experiment and Ni is the radioactivity injected into the brain.
Inulin was studied as a metabolically inert polar reference marker that is neither transported across the BBB nor retained by the brain (40); its clearance rate, i.e., kinulin, provides a measure of the ISF bulk flow and is calculated as Nb(inulin)/Ni(inulin)=exp (−kinulin*t) (2).
For Aβ, there are two possible physiological pathways of elimination—direct transport across the BBB into the bloodstream and elimination by ISF bulk flow into the CSF and cervical lymphatics. It is also possible that Aβ is retained within the brain either by binding to its cell surface receptors directly as a free peptide and/or by binding to different transport proteins. Thus, according to the model, the fraction of Aβ remaining in the brain can be expressed as Nb(Aβ)/Ni(Aβ)=a1+a2*e^−k1*t (3), where a1=k2/(k1+k2) and a2=k1/(k1+k2), and k1 and k2 denote the fractional coefficients of total efflux from the brain and retention within the brain, respectively.
The fractional rate constant of Aβ efflux across the BBB from brain parenchyma can be calculated by knowing the fractional rate coefficient of total efflux of Aβ and inulin as k3=k1−k(inulin) (4), i.e., as the difference between the fractional rate constant for total efflux of Aβ and the fractional rate constant of inulin. The half-saturation concentration for the elimination of Aβ by transport across the BBB, k0.5, was calculated from the equation [1−(Nb/Ni)]*100=Clmax/(k0.5+Ni) (5), where Clmax represents the maximal efflux capacity for the saturable component of Aβ clearance across the BBB corrected for peptide clearance by the ISF flow. Clmax is expressed as a percentage of the injected dose, [1−(Nb/Ni)]×100, cleared from brain by saturable BBB transport over 30 min.
The MLAB mathematical modeling system (Civilized Software, Silver Spring, Md.) was used to fit the compartmental model to the disappearance curves or percent recovery data with inverse square weighting.

[3] = set-up: species or system mice; settings: mouse, in vivo
Protocol: Brain, blood and CSF were sampled and prepared for radioactivity analysis. […] Brain, plasma and CSF samples were mixed with TCA (final concentration 10%), centrifuged at 14,000 rpm at 4° C. for 8 min to 10 min, and radioactivity in the precipitate, water and chloroform fractions determined in gamma counter (Wallac, Turku, Finland).
The supernatant was then lyophilized. The resulting material was dissolved in 0.005% TFA in water, pH 2, before injection onto a C4 column (Vydac, The Separation Group, Hesperia, Calif.). […] Column eluants were monitored at 214 nm. The eluted fractions were collected and counted.
For SDS-PAGE analysis, TCA precipitated samples were resuspended in 1% SDS, vortexed and incubated at 55° C. for 5 min, then neutralized, boiled for 3 min, homogenized and analyzed by electrophoresis in 10% Tris-tricine gels followed by fluorography.

[4] = system: LRP-1; test: LRP-1 levels in human brain endothelial cells exposed to Aβ (Western blot); assay type: cell-based; settings: human BEC; for effect on LRP-1 levels (85 kDa β-subunit and 515 kDa α-subunit): greater than or equal to 1 μM, 48 hr; for effect on LRP-1 expression: low concentrations (less than 10 nM), within 48 hr
Protocol: Human brain endothelial cells (BEC) were isolated from rapid autopsies of neurologically normal young individuals after trauma. BECs were characterized and cultured, and then incubated with different Aβ isoforms at concentrations ranging from 1 nM to 20 μM within 48 hr. Cells were lysed and equal amounts of proteins (10 μg/mi) were separated by 10% denaturing polyacrylamide gel electrophoresis (SDS-PAGE), transferred onto nitrocellulose membrane, and probed with 5A6 (β-chain) or 8G1 (α-chain) human anti-LRP-1-specific IgGs. The relative density of each protein was determined by scanning densitometry using β-actin as an internal control.

[5] = system: brain clearance of ^125I-Aβ1-40; test: Effect of molecular reagents on brain clearance of 125I-Aβ1-40 at 30 min; assay type: in vivo, mice; settings: 125I-Aβ1-40 12 nM
Protocol: as §1
The next set of experiments was designed to characterize the BBB transport system responsible for the transcytosis of Aβ. […] Clearance of ^14C-inulin was not affected by any of the studied molecular reagents.

For `CC(C)C[C@@H](C=O)NC(=O)[C@H](CC(C)C)NC(=O)[C@H](CC(C)C)NC(=O)OCc1ccccc1` [MG132] (Cbz-Leu-Leu-Leu-aldehyde), the “effect on t1/2 for LRP-1” value ([1]; MG132 20 μM, both control and Aβ-treated cells) was “increased”.

In the case of “Aβ1-40: synthetic wild-type amyloid-β peptide of 40 amino acids; in clearance text it means the radioiodinated tracer”, the “half-saturation (K0.5) of the BBB efflux transport system” value ([2]; mouse) is reported as 15.3 nM, the “Retention in brain t½” value ([2]; mouse, in vivo) is reported as 2.742 h and the “Transport by BBB t½” value ([2]; mouse, in vivo) is reported as 0.577 ± 0.06 h. For the same molecule, the “elimination rate from brain at less than 2 nM faster than at a load of 60 nM” value ([2]; mouse, in vivo) was 3.5 fold, the “rate k of clearance from the brain higher than that for inulin” value ([2]; mouse, in vivo) was 7.9 fold and the “reduction of brain clearance in 9-month old apoE KO mice” value ([2]; mouse, in vivo) was 46%. For the same molecule, the “reduction of brain clearance in 9-month old wild-type mice” value ([2]; mouse, in vivo) was 55%, the “reduction of brain clearance in young (2-month old) apoE KO mice” value ([2]; mouse, in vivo) was 30% and the “dose remaining sequestered within the CNS” value ([2]; mouse, in vivo, 5 h) was 15.6%. The “Total Efflux t½ (half-time for brain efflux)” value ([2]; mouse, not told) was 0.417 h, the “difference in half-time of brain efflux versus inulin” value ([2]; mouse, not told) was 9.4 fold and the “degradation/metabolism in brain ISF prior to BBB transport” value [3] was “not observed”. For the same molecule, the “effect on LRP-1 levels (85 kDa β-subunit and 515 kDa α-subunit)” value (“effect on LRP-1 levels” for short) [4] was “progressively decreased” and the “effect on LRP-1 expression” value [4] was “do not alter significantly”.

In the case of “Aβ1-42: synthetic wild-type amyloid-β peptide of 42 amino acids”, the “effect on LRP-1 levels” value [4] is reported as “progressively decreased”, the “effect on LRP-1 expression” value [4] is reported as “do not alter significantly” and the “t1/2 for LRP-1 in the presence of peptide” value ([1]; 20 μM, control 9.6 hr, human BEC) is reported as 6.4 h.

In the case of ^14C-Inulin, the “Retention in brain k” value ([2]; 60 nM) is reported as “None”, the “Retention in brain t½” value ([2]; 60 nM) is reported as “None” and the “Transport by BBB t½” value ([2]; 60 nM) is reported as “None”. For the same molecule, the “Total Efflux k” value ([2]; 60 nM 125I-Aβ1-40 with 14C-inulin, microinjection into caudate nucleus, mice) was 0.0029 ± 0.0002 min⁻¹, the “Total Efflux t½ (half-time for brain efflux)” value ([2]; 60 nM, microinjection into caudate nucleus, young mice) was 3.983 ± 0.208 h and the “Transport by ISF k” value ([2]; 60 nM, ISF bulk flow) was 0.0029 ± 0.0002 min⁻¹. For the same molecule, the “Transport by ISF t½” value ([2]; 60 nM, ISF bulk flow) was 3.98 ± 0.208 h and the “Transport by BBB k” value ([2]; 60 nM, k3=k1−k(inulin), eq. 4) was “None”.

In the case of “mutant Aβ (Dutch/Iowa4o): synthetic Aβ peptide of 40 amino acids with Dutch/Iowa double mutation E22Q/D23N”, the “effect on LRP-1 levels” value [4] is reported as “progressively decreased” and the “effect on LRP-1 expression” value [4] is reported as “do not alter significantly”.

B1: RAP: receptor associated protein, chaperone that antagonizes binding of LRP ligands to LRP-1 and LRP-2 (protein, UniProt P30533 35-357, looked up)
Alpha-2-macroglobulin …: YSREKNQPKPSPKRESGEEFRMEKLNQLWEKAQRLHLPPVRLAELHADLKIQERDELAWKKLKLDGLDEDGEKEARLIRNLNVILAKYGLDGKKDARQVTSNSLSGTQEDGLDDPRLEKLWHKAKTSGKFSGEELDKLWREFLHHKEKVHEYNVLLETLSRTEEIHENVISPSDLSDIKGSVLHSRHTELKEKLRSINQGLDRLRRVSHQGYSTEAEFEEPRVIDLWDLAQSANLTDKELEAFREELKHFEAKIEKHNHYQKQLEIAHEKLRHAESVGDGERVSRSREKHALLEGRTKELGYTVKKHLQDLSGRISRARHNEL
With B1 the “reduction in Aβ clearance from the brain” value ([5]; RAP 200 nM, versus vehicle) was 30% and the “decrease in Aβ clearance from the brain” value ([5]; RAP 5 μM) was 44%.
